# Measurements taken from ChEMBL document CHEMBL3217590, “Discovery of a new class of dithiocarbamates and rhodanine scaffolds as potent antifungal agents: synthesis, biology and molecular docking” (Medchemcomm, 2012).
# Columns and labels:
# [1] = system: Trichophyton mentagrophytes; experiment: Antifungal activity against Trichophyton mentagrophytes after 72 to 96 hrs by broth microdilution technique; format: functional
# Candida parapsilosis = experiment: Antifungal activity against Candida parapsilosis ATCC22019 after 24 to 48 hrs by broth microdilution technique; format: functional; conditions: Lodderomyces parapsilosis
# Candida albicans [2] = experiment: Antifungal activity against Candida albicans after 24 to 48 hrs by broth microdilution technique; format: functional
# Cryptococcus neoformans = experiment: Antifungal activity against Cryptococcus neoformans after 24 to 48 hrs by broth microdilution technique; format: functional
# Aspergillus fumigatus = experiment: Antifungal activity against Aspergillus fumigatus after 72 to 96 hrs by broth microdilution technique; format: functional
# Sporothrix schenckii = experiment: Antifungal activity against Sporothrix schenckii after 72 to 96 hrs by broth microdilution technique; format: functional
# Candida albicans [3] = experiment: Anticandidal activity against Candida albicans ATCC10231 after 24 to 48 hrs by broth microdilution technique; format: functional
# Candida albicans [4] = experiment: Anticandidal activity against Candida albicans CDRI after 24 to 48 hrs by broth microdilution technique; format: functional
# L929 [5] = experiment: Cytotoxicity against mouse L929 cells assessed as morphological changes up to 3.12 ug/ml after 24 hrs by giemsa staining based phase contrast microscopy; format: cell-based; conditions: l929, 24 h
# Candida albicans [6] = experiment: Ratio of fluconazole MIC to compound MIC against amphotericin-B resistant Candida albicans after 24 to 48 hrs by broth microdilution technique; format: functional
# L929 [7] = experiment: Cytotoxicity against mouse L929 cells assessed as decline in cell survival at 12.5 to 50 ug/ml after 24 hrs by spectrophotometric analysis; format: cell-based; conditions: l929, 24 h
# Candida albicans [8] = experiment: Anticandidal activity against Candida albicans isolated from patient after 24 to 48 hrs by broth microdilution technique; format: functional
# Candida albicans [9] = experiment: Anticandidal activity against amphotericin-B resistant Candida albicans after 24 to 48 hrs by broth microdilution technique; format: functional
# Candida albicans [10] = experiment: Anticandidal activity against Candida albicans ATCC750 after 24 to 48 hrs by broth microdilution technique; format: functional
# Candida albicans [11] = experiment: Anticandidal activity against Candida albicans MTCC183 after 24 to 48 hrs by broth microdilution technique; format: functional
# Candida albicans [12] = experiment: Anticandidal activity against Candida albicans ATCC14053 after 24 to 48 hrs by broth microdilution technique; format: functional
# Candida albicans [13] = experiment: Anticandidal activity against Candida albicans ATCC-MYA 2950 after 24 to 48 hrs by broth microdilution technique; format: functional
SMILES,MIC [1],MIC (Candida parapsilosis),MIC (Candida albicans [2]),MIC (Cryptococcus neoformans),MIC (Aspergillus fumigatus),MIC (Sporothrix schenckii),MIC (Candida albicans [3]),MIC (Candida albicans [4]),Activity (L929 [5]),Ratio (Candida albicans [6]),Activity (L929 [7]),MIC (Candida albicans [8]),MIC (Candida albicans [9]),MIC (Candida albicans [10]),MIC (Candida albicans [11]),MIC (Candida albicans [12]),MIC (Candida albicans [13])
COc1cc(/C=C2\SC(=S)N(Cc3ccncc3)C2=O)cc(OC)c1OC,50 µg/mL,50 µg/mL,12.5 µg/mL,50 µg/mL,> 50 µg/mL,25 µg/mL,–,–,–,–,–,–,–,–,–,–,–
CCSC(=S)NCc1ccncc1,3.12 µg/mL,3.12 µg/mL,3.12 µg/mL,3.12 µg/mL,50 µg/mL,1.56 µg/mL,6.25 µg/mL,6.25 µg/mL,Non-toxic,5,Toxic,12.5 µg/mL,1.56 µg/mL,12.5 µg/mL,1.56 µg/mL,3.12 µg/mL,12.5 µg/mL
CCCCSC(=S)NCc1ccncc1,3.12 µg/mL,6.25 µg/mL,3.12 µg/mL,3.12 µg/mL,50 µg/mL,3.12 µg/mL,6.25 µg/mL,12.5 µg/mL,Non-toxic,5,Toxic,12.5 µg/mL,1.56 µg/mL,12.5 µg/mL,1.56 µg/mL,3.12 µg/mL,12.5 µg/mL
S=C(NCc1ccncc1)SCc1ccccc1,6.25 µg/mL,1.56 µg/mL,1.56 µg/mL,1.56 µg/mL,25 µg/mL,6.25 µg/mL,1.56 µg/mL,1.56 µg/mL,Non-toxic,–,Toxic,1.56 µg/mL,12.5 µg/mL,3.12 µg/mL,0.39 µg/mL,0.78 µg/mL,1.56 µg/mL
FC(F)(F)c1ccc(CSC(=S)NCc2ccncc2)cc1,6.25 µg/mL,1.56 µg/mL,1.56 µg/mL,1.56 µg/mL,50 µg/mL,6.25 µg/mL,–,1.56 µg/mL,Non-toxic,–,Toxic,3.12 µg/mL,12.5 µg/mL,3.12 µg/mL,0.78 µg/mL,–,1.56 µg/mL
O=C1/C(=C/c2ccccc2)SC(=S)N1Cc1ccncc1,50 µg/mL,50 µg/mL,25 µg/mL,50 µg/mL,> 50 µg/mL,25 µg/mL,–,–,–,–,–,–,–,–,–,–,–
O=C1/C(=C/c2ccccc2[N+](=O)[O-])SC(=S)N1Cc1ccncc1,6.25 µg/mL,3.12 µg/mL,3.12 µg/mL,6.25 µg/mL,> 50 µg/mL,6.25 µg/mL,–,50 µg/mL,–,2,–,25 µg/mL,3.12 µg/mL,50 µg/mL,12.5 µg/mL,–,50 µg/mL
COc1ccc(/C=C2\SC(=S)N(Cc3ccncc3)C2=O)cc1,> 50 µg/mL,50 µg/mL,50 µg/mL,> 50 µg/mL,> 50 µg/mL,> 50 µg/mL,–,–,–,–,–,–,–,–,–,–,–

# Further lines, with some results ahead:
MIC [1],MIC (Candida parapsilosis),MIC (Candida albicans [2]),MIC (Cryptococcus neoformans),MIC (Aspergillus fumigatus),MIC (Sporothrix schenckii),SMILES,MIC (Candida albicans [3]),MIC (Candida albicans [4]),Activity (L929 [5]),Ratio (Candida albicans [6]),Activity (L929 [7]),MIC (Candida albicans [8]),MIC (Candida albicans [9]),MIC (Candida albicans [10]),MIC (Candida albicans [11]),MIC (Candida albicans [12]),MIC (Candida albicans [13])
6.25 µg/mL,50 µg/mL,12.5 µg/mL,3.12 µg/mL,> 50 µg/mL,1.56 µg/mL,O=C1/C(=C/c2ccccc2F)SC(=S)N1Cc1ccncc1,–,–,–,–,–,–,–,–,–,–,–
> 50 µg/mL,> 50 µg/mL,50 µg/mL,> 50 µg/mL,> 50 µg/mL,> 50 µg/mL,O=C1/C(=C/c2ccc(Cl)cc2)SC(=S)N1Cc1ccncc1,–,–,–,–,–,–,–,–,–,–,–
> 50 µg/mL,> 50 µg/mL,50 µg/mL,> 50 µg/mL,> 50 µg/mL,25 µg/mL,O=C1/C(=C/c2ccc([N+](=O)[O-])cc2)SC(=S)N1Cc1ccncc1,–,–,–,–,–,–,–,–,–,–,–
> 50 µg/mL,> 50 µg/mL,> 50 µg/mL,> 50 µg/mL,> 50 µg/mL,> 50 µg/mL,CCc1ccc(/C=C2\SC(=S)N(Cc3ccncc3)C2=O)cc1,–,–,–,–,–,–,–,–,–,–,–
